# Species on record: Rattus norvegicus
# Assay: DrugMatrix - Regimen: Daily Repeat
# Assay type: toxicity, organism-based, Sprague-Dawley
# Set-up: regimen Daily Repeat, gender Male, age 6-8 weeks
# Details: in vivo, po, route oral GAVAGE, […]; for ABSOLUTE BASOPHIL / ABSOLUTE EOSINOPHIL / ABSOLUTE LYMPHOCYTE / ABSOLUTE MONOCYTE / ABSOLUTE SEGMENTED NEUTROPHIL / BASOPHIL / EOSINOPHIL / ERYTHROCYTE COUNT / HEMATOCRIT / HEMOGLOBIN / LEUKOCYTE COUNT / LYMPHOCYTE / MEAN CORPUSCULAR HEMOGLOBIN / MEAN CORPUSCULAR HEMOGLOBIN CONCENTRATION / MEAN CORPUSCULAR VOLUME / MONOCYTE / NEUTROPHIL / NUCLEATED RED BLOOD CELLS / PLATELET COUNT: tissue Blood; for ALANINE AMINOTRANSFERASE / ALBUMIN / ALKALINE PHOSPHATASE / ASPARTATE AMINOTRANSFERASE / BLOOD UREA NITROGEN / CARBON DIOXIDE / CHLORIDE / CHOLESTEROL / CREATINE PHOSPHOKINASE / CREATININE / GLUCOSE / LACTATE DEHYDROGENASE / LIPASE / PHOSPHORUS / POTASSIUM / SODIUM / TOTAL BILIRUBIN / TOTAL PROTEIN / URIC ACID: tissue Plasma
# [1] = 25 mg/kg, 120 h, dose level Low, time 5 day
# [2] = 800 mg/kg, 72 h, dose level High, time 3 day
# [3] = 800 mg/kg, 120 h, dose level High, time 5 day
smiles,measurement,setting,value
CC(C)(C)NC(=O)[C@H]1CC[C@H]2[C@@H]3CC[C@H]4NC(=O)C=C[C@]4(C)[C@H]3CC[C@]12C [FINASTERIDE],ABSOLUTE BASOPHIL,[1],0 CELLS/uL
same,ABSOLUTE EOSINOPHIL,[1],34.67 CELLS/uL
same,ABSOLUTE LYMPHOCYTE,[1],7140 CELLS/uL
same,ABSOLUTE MONOCYTE,[1],141.33 CELLS/uL
same,ABSOLUTE SEGMENTED NEUTROPHIL,[1],817.33 CELLS/uL
same,BASOPHIL,[1],0%
same,EOSINOPHIL,[1],0.67%
same,ERYTHROCYTE COUNT,[1],5.11 x10E6/uL
same,HEMATOCRIT,[1],33.07%
same,HEMOGLOBIN,[1],13.03 G/DL
same,LEUKOCYTE COUNT,[1],8.13 x10E3/uL
same,LYMPHOCYTE,[1],87.67%
same,MEAN CORPUSCULAR HEMOGLOBIN,[1],25.53 pg
same,MEAN CORPUSCULAR HEMOGLOBIN CONCENTRATION,[1],39.4 G/DL
same,MEAN CORPUSCULAR VOLUME,[1],64.77 fL
same,MONOCYTE,[1],1.67%
same,NEUTROPHIL,[1],10%
same,NUCLEATED RED BLOOD CELLS,[1],0 /100WBC
same,PLATELET COUNT,[1],1248.33 x10E3/uL
same,ALANINE AMINOTRANSFERASE,[1],61 u/L
same,ALBUMIN,[1],4.23 G/DL
same,ALKALINE PHOSPHATASE,[1],355.67 u/L
same,ASPARTATE AMINOTRANSFERASE,[1],74.67 u/L
same,BLOOD UREA NITROGEN,[1],11.67 mg/dL
same,CARBON DIOXIDE,[1],32.33 mmol/L
same,CHLORIDE,[1],103 MEQ/L
same,CHOLESTEROL,[1],87.33 mg/dL
same,CREATINE PHOSPHOKINASE,[1],247.33 u/L
same,CREATININE,[1],0.43 mg/dL
same,GLUCOSE,[1],152 mg/dL
same,LACTATE DEHYDROGENASE,[1],82.33 u/L
same,LIPASE,[1],11 u/L
same,PHOSPHORUS,[1],11.7 mg/dL
same,POTASSIUM,[1],6.04 MEQ/L
same,SODIUM,[1],146.03 MEQ/L
same,TOTAL BILIRUBIN,[1],0.17 mg/dL
same,TOTAL PROTEIN,[1],5.93 G/DL
same,URIC ACID,[1],0.8 mg/dL
same,ABSOLUTE BASOPHIL,[2],0 CELLS/uL
same,ABSOLUTE EOSINOPHIL,[2],0 CELLS/uL
same,ABSOLUTE LYMPHOCYTE,[2],7333 CELLS/uL
same,ABSOLUTE MONOCYTE,[2],111.33 CELLS/uL
same,ABSOLUTE SEGMENTED NEUTROPHIL,[2],889 CELLS/uL
same,BASOPHIL,[2],0%
same,EOSINOPHIL,[2],0%
same,ERYTHROCYTE COUNT,[2],5.15 x10E6/uL
same,HEMATOCRIT,[2],31.93%
same,HEMOGLOBIN,[2],12.77 G/DL
same,LEUKOCYTE COUNT,[2],8.33 x10E3/uL
same,LYMPHOCYTE,[2],88.33%
same,MEAN CORPUSCULAR HEMOGLOBIN,[2],24.83 pg
same,MEAN CORPUSCULAR HEMOGLOBIN CONCENTRATION,[2],40 G/DL
same,MEAN CORPUSCULAR VOLUME,[2],62.17 fL
same,MONOCYTE,[2],1.33%
same,NEUTROPHIL,[2],10.33%
same,NUCLEATED RED BLOOD CELLS,[2],0 /100WBC
same,PLATELET COUNT,[2],974.67 x10E3/uL
same,ALANINE AMINOTRANSFERASE,[2],103.67 u/L
same,ALBUMIN,[2],3.93 G/DL
same,ALKALINE PHOSPHATASE,[2],409.67 u/L
same,ASPARTATE AMINOTRANSFERASE,[2],102.67 u/L
same,BLOOD UREA NITROGEN,[2],11 mg/dL
same,CARBON DIOXIDE,[2],26 mmol/L
same,CHLORIDE,[2],102.33 MEQ/L
same,CHOLESTEROL,[2],70.33 mg/dL
same,CREATINE PHOSPHOKINASE,[2],348.33 u/L
same,CREATININE,[2],0.1 mg/dL
same,GLUCOSE,[2],149 mg/dL
same,LACTATE DEHYDROGENASE,[2],104.67 u/L
same,LIPASE,[2],10.67 u/L
same,PHOSPHORUS,[2],11.3 mg/dL
same,POTASSIUM,[2],5.02 MEQ/L
same,SODIUM,[2],144 MEQ/L
same,TOTAL BILIRUBIN,[2],0.1 mg/dL
same,TOTAL PROTEIN,[2],5.37 G/DL
same,URIC ACID,[2],0.87 mg/dL
same,ABSOLUTE BASOPHIL,[3],0 CELLS/uL
same,ABSOLUTE EOSINOPHIL,[3],85.67 CELLS/uL
same,ABSOLUTE LYMPHOCYTE,[3],6528 CELLS/uL
same,ABSOLUTE MONOCYTE,[3],164.33 CELLS/uL
same,ABSOLUTE SEGMENTED NEUTROPHIL,[3],922 CELLS/uL
same,BASOPHIL,[3],0%
same,EOSINOPHIL,[3],1%
same,ERYTHROCYTE COUNT,[3],5.25 x10E6/uL
same,HEMATOCRIT,[3],33.4%
same,HEMOGLOBIN,[3],12.97 G/DL
same,LEUKOCYTE COUNT,[3],7.7 x10E3/uL
same,LYMPHOCYTE,[3],85%
same,MEAN CORPUSCULAR HEMOGLOBIN,[3],24.7 pg
same,MEAN CORPUSCULAR HEMOGLOBIN CONCENTRATION,[3],38.83 G/DL
same,MEAN CORPUSCULAR VOLUME,[3],63.67 fL
same,MONOCYTE,[3],2%
same,NEUTROPHIL,[3],12%
same,NUCLEATED RED BLOOD CELLS,[3],0 /100WBC
same,PLATELET COUNT,[3],1238.33 x10E3/uL
same,ALANINE AMINOTRANSFERASE,[3],55.33 u/L
same,ALBUMIN,[3],4.33 G/DL
same,ALKALINE PHOSPHATASE,[3],297 u/L
same,ASPARTATE AMINOTRANSFERASE,[3],76.67 u/L
same,BLOOD UREA NITROGEN,[3],13.67 mg/dL
same,CARBON DIOXIDE,[3],32.33 mmol/L
same,CHLORIDE,[3],103 MEQ/L
same,CHOLESTEROL,[3],66.33 mg/dL
same,CREATINE PHOSPHOKINASE,[3],232.33 u/L
same,CREATININE,[3],0.12 mg/dL
same,GLUCOSE,[3],157.67 mg/dL
same,LACTATE DEHYDROGENASE,[3],64.33 u/L
same,LIPASE,[3],10.33 u/L
same,PHOSPHORUS,[3],11.1 mg/dL
same,POTASSIUM,[3],5.99 MEQ/L
same,SODIUM,[3],147.03 MEQ/L
same,TOTAL BILIRUBIN,[3],0.1 mg/dL
same,TOTAL PROTEIN,[3],6.07 G/DL
same,URIC ACID,[3],0.5 mg/dL

# From ChEMBL document CHEMBL3885881, “DrugMatrix”
